Source: patent US20250302965A1, “Preparations of Basic pH Hydrotropes & Methods for Making Same” (Aurora Pharmaceutical, Inc., priority 2023, published 2025)

Columns and labels:
[1] = Solubilization by meglumine chelate system (hydrotrope) at basic pH; conditions: for Dissolution after treatment to create a chelate system: basic pH with meglumine
[2] = source named in cell (Merck Index, Pubchem, published literature); cited from earlier work
[3] = cited from earlier work
[4] = Meloxicam formulations at different meglumine-to-meloxicam molar ratios; neutralization; type: physicochemical; conditions: […] w/v meloxicam formula, 2:1 meglumine-to-meloxicam, neutralized; pH crossed neutral

COc1ccc2[nH]c([S+]([O-])Cc3ncc(C)c(OC)c3C)nc2c1 (stereo not drawn) [Omeprazole]
Dissolution after treatment to create a chelate system [1]: Contains an aromatic benzene ring, a sulfoxide and an aromatic benzimidazole group, but it does not contain a secondary amine, amide or amino sulfone group and did not dissolve when tested.

CN1C(C(=O)Nc2ccccn2)=C(O)c2ccccc2S1(=O)=O [Piroxicam]
Reported Solubility in Water (in w/v) [2]: 0.00497% (Pubchem) % w/v

COc1cc(NS(=O)(=O)c2ccc(N)cc2)nc(OC)n1 [Sulfadimethoxine]
Reported Solubility in Water (in w/v) [2]: 0.0343% (Pubchem) % w/v

Nc1ccc(S(=O)(=O)Nc2ncccn2)cc1 [Sulfadiazine]
Reported Solubility in Water (in w/v) [2]: 0.0077% (Pubchem) % w/v

CC1(C)OC(=O)C(OCC2CC2)=C1c1ccc(S(C)(=O)=O)cc1 [Firocoxib]
Dissolution after treatment to create a chelate system [1]: Does not contain any nitrogen and only one aromatic group with an aryl sulfone and did not dissolve when tested.

O=C(CNC(=O)c1ccc(C2=NOC(c3cc(Cl)cc(C(F)(F)F)c3)(C(F)(F)F)C2)c2ccccc12)NCC(F)(F)F (stereo not drawn) [Afoxolaner]
Dissolution after treatment to create a chelate system [1]: Contains two amides and two aromatic groups, but the amides are not on a chain between the two aromatic groups. The one nitrogen atom that is between the two aromatic groups is not a secondary amine, amide or amino sulfone and did not dissolve when tested.

Cc1cc(-n2c(=O)[nH]c(=O)n(C)c2=O)ccc1Oc1ccc(S(=O)(=O)C(F)(F)F)cc1 [Ponazuril]
Dissolution after treatment to create a chelate system [1]: Contains two aromatic groups and a sulfoxide and an amide, but the amide is not on the chain between the two aromatic rings and did not dissolve when tested.

O=C(NC(=O)c1c(F)cccc1F)Nc1cc(Cl)c(OC(F)(F)C(F)C(F)(F)F)cc1Cl (stereo not drawn) [Lufenuron]
Dissolution after treatment to create a chelate system [1]: Contains two aromatic groups separated by two amide groups between the two aromatic groups and did not dissolve when tested.

CO/N=C1\C[C@]2(C[C@@H]3C[C@@H](C/C=C(\C)C[C@@H](C)/C=C/C=C4\CO[C@@H]5[C@H](O)C(C)=C[C@@H](C(=O)O3)[C@]45O)O2)O[C@H](/C(C)=C/C(C)C)[C@H]1C [Moxidectin]
Dissolution after treatment to create a chelate system [1]: No amines, amides, amino sulfones, or aromatic groups and did not dissolve when tested.

CCc1ccc(Nc2c(F)c(F)cc(F)c2F)c(CC(=O)O)c1 [Robenacoxib]
Reported Solubility in Water (in w/v) [2]: 0.017% (published literature) % w/v

CNC[C@H](O)[C@@H](O)[C@H](O)[C@H](O)CO [Meglumine]
acidity (pKa) [3]: 8.01

O=[N+]([O-])/N=C1\NCCN1Cc1ccc(Cl)nc1 [Imidacloprid]
Dissolution after treatment to create a chelate system [1]: Contains a secondary amine and other nitrogen containing groups but only one aromatic group and did not dissolve when tested.

CC[C@H](C)[C@H]1O[C@]2(C=C[C@@H]1C)C[C@@H]1C[C@@H](C/C=C(\C)[C@@H](O[C@H]3C[C@H](OC)[C@@H](O[C@H]4C[C@H](OC)[C@H](NC(C)=O)[C@H](C)O4)C(C)O3)[C@@H](C)/C=C/C=C3\CO[C@@H]4[C@H](O)C(C)=C[C@@H](C(=O)O1)[C@]34O)O2 (stereo partly drawn) [Eprinomectin]
Dissolution after treatment to create a chelate system [1]: Contains an amide, but no amines, amino sulfones or aromatic groups and did not dissolve when tested.

COC(=O)Nc1nc2ccc(Sc3ccccc3)cc2[nH]1 [Fenbendazole]
Dissolution after treatment to create a chelate system [1]: Contains two aromatic groups and an amide, but the amide is not on the chain between the two aromatic groups and did not dissolve when tested.

COc1ccc(-c2cc(C(F)F)nn2-c2ccc(S(N)(=O)=O)cc2)cc1F [Deracoxib]
Dissolution after treatment to create a chelate system [1]: Contains two aromatic groups and an aryl amino sulfone but the two nitrogen atoms between the aromatic groups are not secondary amines, amides or amino sulfones and did not dissolve when tested.

CCc1nc2c(C)nc(C)cc2n1-c1ccc(CCNC(=O)NS(=O)(=O)c2ccc(C)cc2)cc1 [Grapiprant]
Reported Solubility in Water (in w/v) [2]: Insoluble (Pubchem) | Examples of Solubilities Demonstrated in Experiments (in w/v) ([1]; basic pH, meglumine at least 2:1 molar ratio (meglumine to molecule)): At least 1.5% w/v

Cc1cnc(NC(=O)C2=C(O)c3ccccc3S(=O)(=O)N2C)s1 [Meloxicam]
Behaviour on neutralization [4]: fell out of solution

CC(C(=O)O)c1ccc2c(c1)[nH]c1ccc(Cl)cc12 (stereo not drawn) [Carprofen]
Reported Solubility in Water (in w/v) [2]: 0.00411% (Pubchem) % w/v

CS(=O)(=O)c1ccc([C@@H](O)[C@@H](CF)NC(=O)C(Cl)Cl)cc1 [Florfenicol]
Dissolution after treatment to create a chelate system [1]: Contains an amide and an aryl sulfone, but only one aromatic group and did not dissolve when tested.

CCN1CCN(c2cc3c(cc2F)c(=O)c(C(=O)O)cn3C2CC2)CC1 [Enrofloxacin]
Dissolution after treatment to create a chelate system [1]: Contains only tertiary amines and only one aromatic group and did not dissolve when tested.
